Laboratory results: US20140234359A1, “PLANT VIRAL VACCINES AND THERAPEUTICS” (priority 2011, published 2014)

Tested on: T-24 human bladder cancer cells
Assay: Cell death of T-24 cells after anti-viral treatment, flow cytometry
Format: cell-based
Details: 10 μM efavirenz, 48 hours, vs methanol control
Method: T-24 human bladder cells were grown in a 12 well plate in a total volume of 2 mL of 10% FBS complete RPMI. Cells were left untreated or treated with 2 μL of methanol (Sigma-Aldrich) or treated with 10 μM efavirenz (Toronto Research Chemicals Cat# E425000). Cells were grown in CO2 incubator at 37° C. for 48 hours. After 48 hours, cells were harvested and counted using trypan blue on a hemocytometer.
The human bladder cancer T24 cell line was used to determine the effects of and anti-viral treatment on human tumor cells infected with plant virus. The T24 cells were grown in culture and then treated or not with the anti-reverse transcriptase drug, efavirenz, for twenty four or forty eight hours. Cell death assays were performed in triplicate. […] It is expected that treatment of the bladder cancer cells with a TLR activator to activate new virus replication in combination with the anti-viral drug will be useful in increasing cell death further. FIG. 2a depicts flow cytometer results on T-24 Human bladder cancer cells treated with efavirenz or methanol control for 48 hours. FIG. 2b is a bar graph depiction of the data.

`O=C1Nc2ccc(Cl)cc2[C@@](C#CC2CC2)(C(F)(F)F)O1` [efavirenz] was tested, and the cell death was “increased death” and the cell death (listed as Efavirenz) was “effective in killing a percentage of the cells”.
